According to patent publication US20250084040A1, “SUBSTITUTED HETEROCYCLES AS c-MYC TARGETING AGENTS” (Northwestern University, priority 2018, published 2025):

Test system: NCI 60 cell panel
Test: NCI 60 Cell One-Dose Screen
Type: cell-based, human
Conditions: 1.00E−5 Molar
Protocol: General Description. As of early 2007 all compounds submitted to the NCI 60 Cell screen are tested initially at a single high dose (10^-5 M) in the full NCI 60 cell panel. Only compounds which satisfy pre-determined threshold inhibition criteria in a minimum number of cell lines will progress to the full 5-dose assay. The threshold inhibition criteria for progression to the 5-dose screen was selected to efficiently capture compounds with anti-proliferative activity based on careful analysis of historical DTP screening data. The threshold criteria may be updated as additional data becomes available.
Interpretation of One-Dose Data. The One-dose data will be reported as a mean graph of the percent growth of treated cells and will be similar in appearance to mean graphs from the 5-dose assay. The number reported for the One-dose assay is growth relative to the no-drug control, and relative to the time zero number of cells. This allows detection of both growth inhibition (values between 0 and 100) and lethality (values less than 0). This is the same as for the 5-dose assay, described below. For example, a value of 100 means no growth inhibition. A value of 40 would mean 60% growth inhibition. A value of 0 means no net growth over the course of the experiment. A value of −40 would mean 40% lethality. A value of −100 means all cells are dead. Information from the One-dose mean graph is available for COMPARE analysis.
The human tumor cell lines of the cancer screening panel are grown in RPMI 1640 medium containing 5% fetal bovine serum and 2 mM L-glutamine. For a typical screening experiment, cells are inoculated into 96 well microtiter plates in 100 μL at plating densities ranging from 5,000 to 40,000 cells/well depending on the doubling time of individual cell lines. After cell inoculation, the microtiter plates are incubated at […], 5% CO2, 95% air and 100% relative humidity for 24 h prior to addition of experimental drugs.
After 24 h, two plates of each cell line are fixed in situ with TCA, to represent a measurement of the cell population for each cell line at the time of drug addition (Tz). Experimental drugs are solubilized in dimethyl sulfoxide at 400-fold the desired final maximum test concentration and stored frozen prior to use. At the time of drug addition, an aliquot of frozen concentrate is thawed and diluted to twice the desired final maximum test concentration with complete medium containing 50 µg/ml gentamicin. Additional four, 10-fold or ½ log serial dilutions are made to provide a total of five drug concentrations plus control. Aliquots of 100 μl of these different drug dilutions are added to the appropriate microtiter wells already containing 100 μl of medium, resulting in the required final drug concentrations.
Following drug addition, the plates are incubated for an additional 48 h at 37° C., 5% CO2, 95% air, and 100% relative humidity. For adherent cells, the assay is terminated by the addition of cold TCA. Cells are fixed in situ by the gentle addition of 50 μl of cold 50% (w/v) TCA (final concentration, 10% TCA) and incubated for 60 minutes at 4° C. The supernatant is discarded, and the plates are washed five times with tap water and air dried. Sulforhodamine B (SRB) solution (100 μl) at 0.4% (w/v) in 1% acetic acid is added to each well, and plates are incubated for 10 minutes at room temperature. After staining, unbound dye is removed by washing five times with 1% acetic acid and the plates are air dried. Bound stain is subsequently solubilized with 10 mM trizma base, and the absorbance is read on an automated plate reader at a wavelength of 515 nm. For suspension cells, the methodology is the same except that the assay is terminated by fixing settled cells at the bottom of the wells by gently adding 50 μl of 80% TCA (final concentration, 16% TCA). […]

## Cn1nc(C(F)(F)F)cc1-c1ccc(OCc2ccc(Cl)cc2)c(-c2cc(C(F)(F)F)cc(C(F)(F)F)c2)c1O [NSC: D-795899/1]
786-0 (Renal Cancer)
  Growth Percent: 2.41%
A498 (Renal Cancer)
  Growth Percent: −26.88%
A549/ATCC (Non-Small Cell Lung Cancer)
  Growth Percent: 10.52%
ACHN (Renal Cancer)
  Growth Percent: 7.22%
BT-549 (Breast Cancer)
  Growth Percent: 2.72%
CCRF-CEM (Leukemia)
  Growth Percent: 6.82%
COLO 205 (Colon Cancer)
  Growth Percent: −90.71%
DU-145 (Prostate Cancer)
  Growth Percent: 20.58%
Delta of the mean graph
  Growth Percent, Delta: 89.50%
EKVX (Non-Small Cell Lung Cancer)
  Growth Percent: 7.70%
HCC-2998 (Colon Cancer)
  Growth Percent: 5.78%
HCT-15 (Colon Cancer)
  Growth Percent: 7.50%
HCT-116 (Colon Cancer)
  Growth Percent: 3.65%
HL-60(TB) (Leukemia)
  Growth Percent: −39.89%
HOP-62 (Non-Small Cell Lung Cancer)
  Growth Percent: −9.87%
HOP-92 (Non-Small Cell Lung Cancer)
  Growth Percent: −20.08%
HS 578T (Breast Cancer)
  Growth Percent: 4.39%
HT29 (Colon Cancer)
  Growth Percent: 3.77%
IGROV1 (Ovarian Cancer)
  Growth Percent: 31.40%
K-562 (Leukemia)
  Growth Percent: 1.63%
KM12 (Colon Cancer)
  Growth Percent: 5.04%
LOX IMVI (Melanoma)
  Growth Percent: 6.23%
M14 (Melanoma)
  Growth Percent: 6.30%
MALME-3M (Melanoma)
  Growth Percent: −15.91%
MCF7 (Breast Cancer)
  Growth Percent: 3.01%
MDA-MB-231/ATCC (Breast Cancer)
  Growth Percent: −31.51%
MDA-MB-435 (Melanoma)
  Growth Percent: 11.38%
MDA-MB-468 (Breast Cancer)
  Growth Percent: -5.00%
MOLT-4 (Leukemia)
  Growth Percent: −11.7%
Mean over the cell panel
  Growth Percent, Mean: -1.21%
NCI-H23 (Non-Small Cell Lung Cancer)
  Growth Percent: 0.56%
NCI-H226 (Non-Small Cell Lung Cancer)
  Growth Percent: 13.90%
NCI-H322M (Non-Small Cell Lung Cancer)
  Growth Percent: 5.67%
NCI-H460 (Non-Small Cell Lung Cancer)
  Growth Percent: −10.44%
NCI-H522 (Non-Small Cell Lung Cancer)
  Growth Percent: −9.19%
NCI/ADR-RES (Ovarian Cancer)
  Growth Percent: 1.98%
OVCAR-3 (Ovarian Cancer)
  Growth Percent: 7.02%
OVCAR-4 (Ovarian Cancer)
  Growth Percent: 20.71%
OVCAR-5 (Ovarian Cancer)
  Growth Percent: 29.10%
OVCAR-8 (Ovarian Cancer)
  Growth Percent: 8.36%
PC-3 (Prostate Cancer)
  Growth Percent: 10.73%
RPMI-8226 (Leukemia)
  Growth Percent: −14.54%
RXF 393 (Renal Cancer)
  Growth Percent: −14.51%
Range over the cell panel
  Growth Percent, Range: 122.11%
SF-268 (CNS Cancer)
  Growth Percent: 16.59%
SF-295 (CNS Cancer)
  Growth Percent: −22.60%
SF-539 (CNS Cancer)
  Growth Percent: 2.13%
SK-MEL-2 (Melanoma)
  Growth Percent: −33.97%
SK-MEL-28 (Melanoma)
  Growth Percent: 28.00%
SK-MIEL-5 (Melanoma)
  Growth Percent: −36.59%
SK-OV-3 (Ovarian Cancer)
  Growth Percent: −13.54%
SN12C (Renal Cancer)
  Growth Percent: 7.93%
SNB-19 (CNS Cancer)
  Growth Percent: 22.58%
SNB-75 (CNS Cancer)
  Growth Percent: 4.92%
SR (Leukemia)
  Growth Percent: −4.24%
SW-620 (Colon Cancer)
  Growth Percent: 13.14%
T-47D (Breast Cancer)
  Growth Percent: −11.64%
TK-10 (Renal Cancer)
  Growth Percent: 9.29%
U251 (CNS Cancer)
  Growth Percent: 6.17%
UACC-62 (Melanoma)
  Growth Percent: 3.02%
UACC-257 (Melanoma)
  Growth Percent: −7.16%
UO-31 (Renal Cancer)
  Growth Percent: −1.27%
